Data from patent US20050272784A1 (priority 2004, published 2005).

Legend:
[1] = test system: SPI1 type III protein secretion system (SopE'-'Bla secretion); assay: Primary assay: Type III protein secretion of the chimeric SopE'-'Bla polypeptide by Salmonella enterica; type: cell-based; details: read-out: SopE IC50
Source text: Primary assay: Type III protein secretion of the chimeric SopE′-'Bla polypeptide by Salmonella enterica. This procedure is a cell-based assay that measures the type III-dependent secretion by Salmonella enterica of a plasmid-encoded chimeric polypeptide whose synthesis can be regulated, and which is endowed with an enzymatic activity that can be monitored […] by hydrolysis of a substrate that is unable to penetrate into the bacterial cytoplasm within the time constraints of the reaction. Thus, the colorimetric reaction is not influenced by SopE′-'Bla polypeptide in the bacterial cytoplasm. Instead, it effectively measures the amount of polypeptide that has been secreted from the S. enterica cytoplasm to the extracellular medium via type III system protein secretion.
The SopE′-' Bla recombinant polypeptide consists of two functionally distinct domains spliced together. The N-terminus domain is encoded by a polynucleotide region specifying the signal for type III secretion of the SopE polypeptide of S. enterica, an effector of the SPI1 type III protein secretion system. The C-terminus domain of SopE′-'Bla consists of a 263 amino acid peptide sequence that corresponds to the TEM-1 β-lactamase expressed by plasmid pBR322 but without its N-terminal signal sequence. The TEM-1 β-lactamase part of the SopE′-'Bla chimeric polypeptide is used as a reporter enzyme. It is capable of hydrolyzing nitrocefin resulting in a product whose accumulation can be monitored by colorimetric detection. The secretion of the SopE′-'Bla chimeric polypeptide from the cytoplasm to the extracellular medium is dependent on type III protein secretion.
For this procedure, cells grown under conditions known to favor a functional SPI1 secretion system are induced for expression of the SopE′-'Bla protein and grown either in the presence or in the absence of putative inhibitors for determined time. Nitrocefin is then added to the various cultures and its hydrolysis are used for quantitation. An inhibitor of Type III protein secretion is generally a compound that reduces the signal of the enzymatic reaction by decreasing the amount of SopE′-'Bla secreted into the extracellular medium.

[2] = test system: type III protein secretion system of P. aeruginosa PA103 (ExoU secretion); assay: Tertiary assay: Type III-dependent secretion of ExoU by P. aeruginosa PA103; type: cell-based; details: Pseudomonas aeruginosa, ExoU Conc 100 μM, read-out: ExoU % Inh
Source text: Tertiary assay: inhibition of Type III protein secretion of effectors from a Pseudomonas aeruginosa system. Type III protein secretion is used by P. aeruginosa to secrete several essential virulence determinants. One effector of the type III protein secretion system of P. aeruginosa PA103 is the virulence determinants ExoU.
The amount of Type III-dependent secretion of ExoU by P. aeruginosa PA103 can be determined in a cell-based assay by quantification of the 73.9 kDa ExoU protein scereted into the extracellular medium. Such quantitation can be achieved by growing strain PA103 in a deferrated medium in the presence of nitrilotriacetic acid (an inducer of Type III protein secretion in P. aeruginosa) and either in the presence or absence of putative inhibitors. After a prolonged growth period, the cells are sedimented and the supernatants concentrated by ammonium sulfate precipitation. The proteins in the resuspended pellets are separated by electrophoresis on SDS-polyacrylamide gels. After staining gels with Colloidal Blue™, the 73.9 kDa ExoU band is quantitated by scanning through an imager. The effects of inhibitors on the intensity of the ExoU band may be measured relative to that of untreated controls.

O=C(NC(Cc1ccc(Cl)cc1)C(=O)O)c1cc(-c2ccc(-c3ccccc3)cc2)nn1-c1ccc(C(F)(F)F)cc1 (stereo not shown) [Compound 76, 2-{[5-Biphenyl-4-yl-2-(4-trifluoromethylphenyl)-2H-pyrazole-3-carbonyl]amino}-3-(4-chlorophenyl)propionic acid]
IC50 [1]: 19.6 µM

O=C(NC(Cc1ccc(Cl)cc1)C(=O)O)c1nc(-c2ccc(Oc3ccccc3)cc2)oc1-c1ccc(Cl)nc1Cl (stereo not shown) [Compound 38, 3-(4-Chlorophenyl)-2-{[5-(2,6-dichloropyridin-3-yl)-2-(4-phenoxyphenyl)oxazole-4-carbonyl]amino}propionic acid]
IC50 [1]: 2.4 µM

N=C(NO)c1ccc(-c2oc(-c3ccc(C(F)(F)F)cc3)nc2C(=O)N[C@@H](CSCc2ccccc2)C(=O)O)cc1 [Compound 49, (R)-3-Benzylsulfanyl-2-{[5-[4-(N-hydroxycarbamimidoyl)phenyl]-2-(4-trifluoromethylphenyl)oxazole-4-carbonyl]amino}propionic acid]
IC50 [1]: 34.7 µM

Cn1cc(-c2oc(-c3ccc(C(F)(F)F)cc3)nc2C(=O)N[C@@H](CSCc2ccccc2)C(=O)O)c2ccccc21 [Compound 46, (R)-3-Benzylsulfanyl-2-{[5-(1-methyl-1H-indol-3-yl)-2-(4-trifluoromethylphenyl)oxazole-4-carbonyl]amino}propionic acid]
IC50 [1]: 47.3 µM

Cn1cc(-c2oc(-c3ccc(C(F)(F)F)cc3)nc2C(=O)N[C@@H](COCc2ccccc2)C(=O)O)c2ccccc21 [Compound 47, (S)-3-Benzyloxy-2-{[5-(1-methyl-1H-indol-3-yl)-2-(4-trifluoromethylphenyl)oxazole-4-carbonyl]amino}propionic acid]
IC50 [1]: 54 µM

O=C(N[C@@H](CSCc1ccccc1)C(=O)O)c1nc(-c2ccc(C(F)(F)F)cc2)sc1-c1ccc(-c2ccccc2)cc1 [Compound 2, (R)-3-Benzylsulfanyl-2-{[5-biphenyl-4-yl-2-(4-trifluoromethylphenyl)thiazole-4-carbonyl]amino}propionic acid]
IC50 [1]: 16.5 µM

CC(=O)N1CCN(c2ncccc2-c2oc(-c3ccc(C(F)(F)F)cc3)nc2C(=O)NC(Cc2ccc(Cl)cc2)C(=O)O)CC1 (stereo not shown) [Compound 32, 2-{[5-[2-(4-Acetylpiperazin-1-yl)pyridin-3-yl]-2-(4-trifluoromethylphenyl)oxazole-4-carbonyl]amino}-3-(4-chlorophenyl)propionic acid]
IC50 [1]: 77.3 µM

O=C(NC(CSCc1ccccc1)C(=O)O)c1nc(-c2ccc(Oc3ccccc3)cc2)oc1-c1ccc(Cl)nc1Cl (stereo not shown) [Compound 36, 3-Benzylsulfanyl-2-{[5-(2,6-dichloropyridin-3-yl)-2-(4-phenoxyphenyl)oxazole-4-carbonyl]amino}propionic acid]
IC50 [1]: 3.3 µM

O=C(NC(Cc1ccc(Cl)cc1)C(=O)O)c1cc(-c2ccc(-c3ccccc3)cc2)nn1-c1ccc(Cl)c(Cl)c1 (stereo not shown) [Compound 75, 2-{[5-Biphenyl-4-yl-2-(3,4-dichlorophenyl)-2H-pyrazole-3-carbonyl]amino}-3-(4-chlorophenyl)propionic acid]
IC50 [1]: 3 µM

O=C(N[C@@H](CS(=O)(=O)Cc1ccccc1)C(=O)O)c1nc(-c2ccc(C(F)(F)F)cc2)oc1-c1cccnc1N1CCCCC1 [Compound 31, (R)-3-Phenylmethanesulfonyl-2-{[5-(3,4,5,6-tetrahydro-2H-[1,2′]bipyridin-3′-yl)-2-(4-trifluoromethylphenyl)oxazole-4-carbonyl]amino}propionic acid]
IC50 [1]: 71.5 µM

O=C(N[C@@H](CSCc1ccccc1)C(=O)O)c1nc(-c2ccc(C(F)(F)F)cc2)oc1-c1cccnc1Cl [Compound 25, (R)-3-Benzylsulfanyl-2-{[5-(2-chloropyridin-3-yl)-2-(4-trifluoromethylphenyl)oxazole-4-carbonyl]amino}propionic acid]
IC50 [1]: 62.6 µM

O=C(N[C@@H](COCc1ccccc1)C(=O)O)c1nc(-c2ccc(C(F)(F)F)cc2)oc1-c1cccnc1Cl [Compound 24, (S)-3-Benzyloxy-2-{[5-(2-chloropyridin-3-yl)-2-(4-trifluoromethylphenyl)oxazole-4-carbonyl]amino}propionic acid]
IC50 [1]: 80.5 µM

O=C(N[C@@H](COCc1ccccc1)C(=O)O)c1nc(-c2ccc(Oc3ccccc3)cc2)oc1-c1cnc(Cl)c(Cl)c1 [Compound 40, (S)-3-Benzyloxy-2-{[5-(5,6-dichloropyridin-3-yl)-2-(4-phenoxyphenyl)oxazole-4-carbonyl]amino}propionic acid]
IC50 [1]: 5.2 µM

O=C(N[C@@H](C[S+]([O-])Cc1ccccc1)C(=O)O)c1nc(-c2ccc(C(F)(F)F)cc2)[nH]c1-c1ccc(-c2ccccc2)cc1 (stereo partly drawn) [Compound 12, (R)-2-{[5-Biphenyl-4-yl-2-(4-trifluoromethylphenyl)-1H-imidazole-4-carbonyl]amino}-3-phenylmethanesulfinylpropionic acid]
IC50 [1]: 14 µM
inhibition at 100 µM [2]: 84.3%

O=C(N[C@@H](CSCc1ccccc1)C(=O)O)c1nc(-c2ccc(C(F)(F)F)cc2)oc1-c1ccc2ccccc2n1 [Compound 26, (R)-3-Benzylsulfanyl-2-{[5-quinolin-2-yl-2-(4-trifluoromethylphenyl)oxazole-4-carbonyl]amino}propionic acid]
IC50 [1]: 5.8 µM

O=C(N[C@@H](COCc1ccccc1)C(=O)O)c1nc(-c2ccc(C(F)(F)F)cc2)oc1C1CCN(c2nccc(C(F)(F)F)n2)CC1 [Compound 56]
IC50 [1]: 12 µM

O=C(N[C@@H](CSCc1ccccc1)C(=O)O)c1nc(-c2ccc(C(F)(F)F)cc2)oc1-c1ccc(-c2nccs2)cc1 [Compound 21, (R)-3-Benzylsulfanyl-2-{[5-(4-thiazol-2-yl-phenyl)-2-(4-trifluoromethylphenyl)oxazole-4-carbonyl]amino}propionic acid]
IC50 [1]: 3.1 µM

O=C(N[C@@H](C[S+]([O-])Cc1ccccc1)C(=O)O)c1nc(-c2ccc(C(F)(F)F)cc2)oc1-c1cccnc1N1CCCCC1 (stereo partly drawn) [Compound 30, (R)-3-Phenylmethanesulfinyl-2-{[5-(3,4,5,6-tetrahydro-2H-[1,2′]bipyridin-3′-yl)-2-(4-trifluoromethylphenyl)oxazole-4-carbonyl]amino}propionic acid]
IC50 [1]: 29.2 µM

O=C(NC(Cc1ccc(Cl)cc1)C(=O)O)c1nc(-c2cccc3ccccc23)oc1-c1ccc(C(F)(F)F)nc1 (stereo not shown) [Compound 58, 3-(4-Chlorophenyl)-2-{[2-naphthalen-1-yl-5-(6-trifluoromethylpyridin-3-yl)oxazole-4-carbonyl]amino}propionic acid]
IC50 [1]: 4.2 µM

O=C(N[C@@H](CSCc1ccccc1)C(=O)O)c1nc(-c2ccc(Oc3ccccc3)cc2)oc1-c1cnc(Cl)c(Cl)c1 [Compound 39, (R)-3-Benzylsulfanyl-2-{[5-(5,6-dichloropyridin-3-yl)-2-(4-phenoxyphenyl)oxazole-4-carbonyl]amino}propionic acid]
IC50 [1]: 9.1 µM

O=C(NC(Cc1ccc(Cl)cc1)C(=O)O)c1nc(-c2ccc(C(F)(F)F)cc2)oc1-c1cnc2ccccc2n1 (stereo not shown) [Compound 54, 3-(4-Chlorophenyl)-2-{[5-quinoxalin-2-yl-2-(4-trifluoromethylphenyl)oxazole-4-carbonyl]amino}propionic acid]
IC50 [1]: 49.4 µM

O=C(N[C@@H](CSCc1ccccc1)C(=O)O)c1nc(-c2ccc(C(F)(F)F)cc2)oc1-c1ccc(-c2noc(C(F)(F)F)n2)cc1 [Compound 50, (R)-3-Benzylsulfanyl-2-{[5-[4-(5-trifluoromethyl[1,2,4]oxadiazol-3-yl)phenyl]-2-(4-trifluoromethylphenyl)oxazole-4-carbonyl]amino}propionic acid]
IC50 [1]: 64.3 µM

O=C(N[C@@H](CSCc1ccccc1)C(=O)O)c1nc(-c2ccc(C(F)(F)F)cc2)oc1-c1ccc(-c2ccsc2)cc1 [Compound 20, (R)-3-Benzylsulfanyl-2-{[5-(4-thien-3-yl-phenyl)-2-(4-trifluoromethylphenyl)oxazole-4-carbonyl]amino}propionic acid]
IC50 [1]: 3.3 µM

O=C(N[C@@H](COCc1ccccc1)C(=O)O)c1nc(-c2ccc(-c3ccccc3)cc2)oc1-c1ccc(Cl)c(Cl)c1 [Compound 6, (S)-3-Benzyloxy-2-{[2-biphenyl-4-yl-5-(3,4-dichlorophenyl)oxazole-4-carbonyl]amino}propionic acid]
IC50 [1]: 25.6 µM
